Where a SMILES comes first, the peptide text is derived from it. The star is where a group is joined. Cbz = O=C(OCc1ccccc1)*; CH2F = FC*
Key:
[1] = system: PARP cleavage in Jurkat cells; assay: Effect of Z-VD-fmk on PARP cleavage in antiFas-treated Jurkat cells (Example 24); assay type: cell-based, human
Protocol: Poly(ADP)ribose polymerase (PARP) was one of the first caspase-3 substrates identified and the cleavage of PARP is still considered to be a near-universal marker for caspase-3 activation and caspase-mediated apoptosis. The ability of an anti-apoptotic compound to block PARP cleavage is therefore a useful indicator of its ability to inhibit apoptosis. The potency of Z-VD-fmk in a PARP cleavage assay was tested using antiFas-treated Jurkat cells. 2×10^6 Jurkat cells were seeded in each well of a 6-well dish and pre-incubated with test compounds for 30 minutes. The cells were then challenged with 500 ng/mL of an agonistic antiFas antibody or PBS for 4 hours. The cells were then harvested, pelleted gently, washed two times with PBS and lysed in RIPA buffer. Aliquots of the lysate were analyzed by SDS-PAGE and the proteins were transferred to PVDF membranes for Western blotting. The primary antibody was a polyclonal antiPARP serum which cross-reacts with both full-length PARP and the caspase-3-generated cleavage product.

HeLa cells = assay: Effect of Z-VD-fmk on TNF-α-induced cell death in HeLa cells (calcein AM, Example 25); assay type: cell-based; conditions: below 1 μM (data not shown)
Protocol: Tumor necrosis factor alpha (TNF-α) can trigger apoptosis in a number of cell types by initiating the caspase cascade and its apoptosis inducing activity can be inhibited by peptide-based caspase inhibitors. However, high concentrations of the inhibitors (50 μM or greater) is required to have good anti-apoptotic effect. HeLa cells, a cell line commonly employed in TNF-α cell death studies, was used here to determine the anti-apoptotic potency of Z-VD-fmk.
HeLa cells were seeded in 48-well multidishes at a density of 50,000 cells per well 24 hours before treatment. They were then pre-incubated with varying concentrations of Z-VD-fmk for 2 hours and challenged with TNF-α (25 ng/mL) and cycloheximide (CHX; 30 μg/mL). The cultures were incubated for an additional 24 hours and dead cells were removed by two washes with PBS. The density of surviving cells was then measured by incubating each culture for 45 minutes with calcein AM, a profluorescent dye which is taken up by living cells and converted to a fluorescent product. The resulting data were expressed as % control values (control values were cells incubated with cycloheximide but without TNF-α).
Z-VD-fmk provided good cytoprotection at concentrations approaching 100 nM.

COC(=O)C[C@H](NC(=O)[C@H](C)NC(=O)[C@@H](NC(=O)OCc1ccccc1)C(C)C)C(=O)CF [Z-VAD-fmk, reference compound] (Cbz-Val-Ala-Asp(OMe)-CH2F)
inhibition of PARP cleavage ([1]; 500 nM, antiFas-treated Jurkat cells): much less effective
inhibition of PARP cleavage ([1]; 5 μM, antiFas-treated Jurkat cells (data not shown)): effective inhibitor
cytoprotection against TNF-α-induced cell death (HeLa cells): loses much of its cytoprotective properties
